From ChEMBL document CHEMBL4811304, “Design, synthesis and biological evaluation of dual mTOR/HDAC6 inhibitors in MDA-MB-231 cells” (Bioorg Med Chem Lett, 2021)
pIC50: −log10 of the molar value. Calls of active or inactive are those of the source. No cut-off for these calls is given here.

How the values were obtained:
MCF-10A = assay: Cytotoxicity against human MCF-10A cells assessed as increase in cell viability; type: cell-based
MDA-MB-231 [1] = assay: Induction of apoptosis in human MDA-MB-231 cells assessed as necrotic cells at 20 uM by annexin V/propidium iodide staining-based flow cytometry analysis (reference value: 0.099 %); type: functional
MDA-MB-231 [2] = assay: Inhibition of cell migration in human MDA-MB-231 cells after 48 hrs by transwell assay; type: functional, cell-based; details: dose 5-20 µM
MDA-MB-231 [3] = assay: Induction of apoptosis in human MDA-MB-231 cells assessed as increase in caspase 8 cleavage at 5 to 20 uM by Western blot analysis; type: functional, cell-based; details: dose 5-20 µM
MDA-MB-231 [4] = assay: Induction of apoptosis in human MDA-MB-231 cells assessed as live cells at 10 uM by annexin V/propidium iodide staining-based flow cytometry analysis (reference value: 96.7 %); type: functional
[5] = molecular target: Serine/threonine-protein kinase mTOR (Homo sapiens, UniProt P42345); assay: Inhibition of mTOR in human MDA-MB-231 cells assessed as decrease in p70s6k phosphorylation at […] residue at 5 to 20 uM by Western blot analysis; type: cell-based; details: dose 5-20 µM
MDA-MB-231 [6] = assay: Induction of autophagy in human MDA-MB-231 cells transfected with GFP-LC3 assessed as increase in Beclin 1 level at 5 to 20 uM after 48 hrs by Western blot analysis; type: functional, cell-based; details: dose 5-20 µM
MDA-MB-231 [7] = assay: Induction of apoptosis in human MDA-MB-231 cells assessed as necrotic cells at 10 uM by annexin V/propidium iodide staining-based flow cytometry analysis (reference value: 0.099 %); type: functional
MDA-MB-436 = assay: Antiproliferative activity against human MDA-MB-436 cells measured after 48 hrs; type: functional, cell-based; details: MDA-MB-436, 48 h
MDA-MB-231 [8] = assay: Induction of apoptosis in human MDA-MB-231 cells assessed as upregulation of BAX at 5 to 20 uM by Western blot analysis; type: functional, cell-based; details: dose 5-20 µM
MDA-MB-231 [9] = assay: Induction of apoptosis in human MDA-MB-231 cells assessed as increase in PARP cleavage at 5 to 20 uM by Western blot analysis; type: functional, cell-based; details: dose 5-20 µM
MDA-MB-231 [10] = assay: Induction of apoptosis in human MDA-MB-231 cells assessed as late apoptotic cells at 5 uM by annexin V/propidium iodide staining-based flow cytometry analysis (reference value: 2.34 %); type: functional
MDA-MB-231 [11] = assay: Inhibition of cell migration in human MDA-MB-231 cells assessed as decrease in MMP-2 expression at 5 to 20 uM after 48 hrs by Western blot analysis; type: functional, cell-based; details: dose 5-20 µM
MDA-MB-231 [12] = assay: Induction of apoptosis in human MDA-MB-231 cells assessed as necrotic cells at 5 uM by annexin V/propidium iodide staining-based flow cytometry analysis (reference value: 0.099 %); type: functional
[13] = molecular target: T1, Protein deacetylase HDAC6 (Homo sapiens) (UniProt Q9UBN7); assay: Inhibition of HDAC6 in human MDA-MB-231 cells assessed as accumulation of acetylated tubulin at 5 to 20 uM by Western blot analysis; type: cell-based; details: dose 5-20 µM
T1 sequence (whole entry): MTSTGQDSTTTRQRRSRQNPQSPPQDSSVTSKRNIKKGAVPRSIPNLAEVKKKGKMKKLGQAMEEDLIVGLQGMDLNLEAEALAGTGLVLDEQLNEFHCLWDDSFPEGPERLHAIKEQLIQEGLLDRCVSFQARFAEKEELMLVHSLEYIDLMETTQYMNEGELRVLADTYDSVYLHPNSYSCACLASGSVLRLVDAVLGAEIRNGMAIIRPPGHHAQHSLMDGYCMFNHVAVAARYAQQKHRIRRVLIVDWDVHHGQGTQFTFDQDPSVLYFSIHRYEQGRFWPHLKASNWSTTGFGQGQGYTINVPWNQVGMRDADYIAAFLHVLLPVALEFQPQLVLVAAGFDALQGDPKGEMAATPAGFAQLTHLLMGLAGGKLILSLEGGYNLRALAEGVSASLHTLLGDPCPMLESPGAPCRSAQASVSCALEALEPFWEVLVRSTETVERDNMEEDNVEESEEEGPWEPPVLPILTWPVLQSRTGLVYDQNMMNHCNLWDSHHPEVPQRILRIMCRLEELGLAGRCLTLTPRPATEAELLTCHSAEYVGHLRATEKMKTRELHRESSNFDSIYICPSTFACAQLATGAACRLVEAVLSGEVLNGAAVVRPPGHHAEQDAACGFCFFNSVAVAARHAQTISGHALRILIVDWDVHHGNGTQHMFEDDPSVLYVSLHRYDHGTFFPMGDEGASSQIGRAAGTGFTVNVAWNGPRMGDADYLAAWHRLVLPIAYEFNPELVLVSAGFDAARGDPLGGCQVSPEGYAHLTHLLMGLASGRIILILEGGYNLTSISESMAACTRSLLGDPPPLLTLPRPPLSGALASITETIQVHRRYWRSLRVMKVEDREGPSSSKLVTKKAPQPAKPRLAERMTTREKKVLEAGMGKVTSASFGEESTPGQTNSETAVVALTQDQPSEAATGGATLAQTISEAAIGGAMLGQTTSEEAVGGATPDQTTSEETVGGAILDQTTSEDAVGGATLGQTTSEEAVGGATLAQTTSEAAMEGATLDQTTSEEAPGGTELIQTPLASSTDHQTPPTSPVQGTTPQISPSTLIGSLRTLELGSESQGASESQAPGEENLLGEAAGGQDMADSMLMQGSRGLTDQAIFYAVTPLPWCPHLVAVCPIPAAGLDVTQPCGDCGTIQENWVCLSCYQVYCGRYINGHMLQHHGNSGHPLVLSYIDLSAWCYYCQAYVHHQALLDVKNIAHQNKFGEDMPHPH

MDA-MB-231 [14] = assay: Induction of apoptosis in human MDA-MB-231 cells assessed as late apoptotic cells at 10 uM by annexin V/propidium iodide staining-based flow cytometry analysis (reference value: 2.34 %); type: functional
MDA-MB-231 [15] = assay: Induction of apoptosis in human MDA-MB-231 cells assessed as downregulation of Bcl-2 at 5 to 20 uM by Western blot analysis; type: functional, cell-based; details: dose 5-20 µM
MDA-MB-231 [16] = assay: Induction of apoptosis in human MDA-MB-231 cells assessed as live cells at 5 uM by annexin V/propidium iodide staining-based flow cytometry analysis (reference value: 96.7 %); type: functional
[17] = molecular target: T2, Protein deacetylase HDAC6 (Homo sapiens, UniProt Q9UBN7); assay: Inhibition of HDAC6 (unknown origin)
T2 sequence (Q9UBN7 whole entry): T1 sequence (whole entry)

Histone deacetylase 2 = Histone deacetylase 2 (Homo sapiens, UniProt Q92769); assay: Inhibition of HDAC2 (unknown origin)
MDA-MB-231 [18] = assay: Antiproliferative activity against human MDA-MB-231 cells assessed as inhibition of clone formation at 2.5 to 10 uM; type: functional, cell-based; details: dose 2.5-10 µM
MDA-MB-231 [19] = assay: Inhibition of cell migration in human MDA-MB-231 cells after 48 hrs by wound healing assay; type: functional, cell-based; details: dose 5-20 µM
MDA-MB-231 [20] = assay: Induction of autophagy in human MDA-MB-231 cells transfected with GFP-LC3 assessed as accumulation of LC3 puncta at 5 to 20 uM after 48 hrs by Western blot analysis; type: functional, cell-based; details: dose 5-20 µM
MDA-MB-231 [21] = assay: Induction of apoptosis in human MDA-MB-231 cells assessed as early apoptotic cells at 10 uM by annexin V/propidium iodide staining-based flow cytometry analysis (reference value: 0.69 %); type: functional

Chain of Histone deacetylase 2 (Q92769 whole entry): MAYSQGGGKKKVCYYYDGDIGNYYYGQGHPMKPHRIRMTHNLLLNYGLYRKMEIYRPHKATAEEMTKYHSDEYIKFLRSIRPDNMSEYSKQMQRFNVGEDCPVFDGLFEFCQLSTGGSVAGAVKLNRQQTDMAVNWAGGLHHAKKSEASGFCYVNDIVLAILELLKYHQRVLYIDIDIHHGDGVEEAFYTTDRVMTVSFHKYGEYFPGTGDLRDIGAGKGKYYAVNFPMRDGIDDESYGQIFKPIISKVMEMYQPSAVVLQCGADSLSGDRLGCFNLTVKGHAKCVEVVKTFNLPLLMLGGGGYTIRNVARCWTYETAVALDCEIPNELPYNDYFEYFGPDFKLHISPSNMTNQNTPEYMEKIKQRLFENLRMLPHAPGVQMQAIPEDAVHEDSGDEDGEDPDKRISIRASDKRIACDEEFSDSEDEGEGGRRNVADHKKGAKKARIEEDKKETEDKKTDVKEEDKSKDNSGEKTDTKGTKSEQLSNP

CN1CCN(c2nc(-c3ccc(C(=O)NO)cc3)nc3cc(Cl)ccc23)CC1
Activity (MCF-10A): Non-Toxic
Activity (MDA-MB-231 [1]): 0.46%
inhibition (MDA-MB-231 [2]): Active
Activity (MDA-MB-231 [3]): Active
Activity (MDA-MB-231 [4]): 69.1%
inhibition [5]: Active
Activity (MDA-MB-231 [6]): Active
Activity (MDA-MB-231 [7]): 0.49%
pIC50 (MDA-MB-436): 4.97
Activity (MDA-MB-231 [8]): Active
Activity (MDA-MB-231 [9]): Active
Activity (MDA-MB-231 [10]): 6.39%
inhibition (MDA-MB-231 [11]): Active
Activity (MDA-MB-231 [12]): 0.64%
inhibition [13]: Active
Activity (MDA-MB-231 [14]): 22.4%
Activity (MDA-MB-231 [15]): Active
Activity (MDA-MB-231 [16]): 88.1%
pIC50 [17]: 7.25
pIC50 (Histone deacetylase 2): 6.43
inhibition (MDA-MB-231 [18]): Active
inhibition (MDA-MB-231 [19]): Active
Activity (MDA-MB-231 [20]): Active
Activity (MDA-MB-231 [21]): 7.95%
